{
  "source": "patent US20170258871A1",
  "about": "“COMBINED USE OF A TRKA INHIBITOR AND AN EPHA2 INHIBITOR FOR USING IN THE TREATMENT OF SOLID CANCERS, AND METHOD FOR THE PROGNOSIS OF SURVIVAL OF A PATIENT WHO HAS A SOLID CANCER” (UNIVERSITE DES SCIENCES ET TECHNOLOGIES DE LILLE, priority 2014, published 2017)",
  "key": {"[1]": {"system": "MDA-MB-231 HA-TrkA tumours", "test": "Xenograft of MDA-MB-231 HA-TrkA in SCID mice, tumour volume (Experiment 1)", "format": "in vivo", "conditions": "3 injections every 3 days from day 14; CEP-701 10 mg/kg intraperitoneal, siEphA2 7.5 microg/mouse close to the tumour", "protocol": "FIG. 9: A study of the inhibition of TrkA and EphA2 on tumour development in vivo. The tumours were developed without any intervention for 14 days and then subjected to 3 injections (every 3 days, black arrows) of solvent (control), CEP-701 (10 mg/kg), siEphA2 (7.5 microg/mouse) or CEP-701 (10 mg/kg) and siEphA2 (7.5 microg/mouse). The experiments were stopped 31 days after the first injection of the treatment for ethical considerations after the death of the control mice. A) The tumour volumes were evaluated by measuring the length (;) and the width (w) and then calculating the volume using the formula π/6×l×W×(l+w)/2; the Mann and Whitney test was carried out between the control group and CEP-701 (a), between the control groups and siEphA2 (b), between the control groups and CEP-701+siEphA2 (c), and between the groups siEphA2 and CEP-701+siEphA2 (d)*, P<0.05; **, P<0.01; ns: not significant. B) Study of the inhibition of the expression of receptors by siRNA on the overall survival of SCID mice. […] The tumour volumes were evaluated by measuring the length (l) and width (w) and then calculating the volume using the formula π/6×l×W×(l+w)/2. […] Significance was measured using the log-rank test (P=0.0022). […]\nExperiment 1: the mice used were six-week old SCID females. […] The tumour volume was measured according to the following formula: π/6×length×width×(width+length)/2. […]"}, "[2]": {"system": "FaDu cells", "test": "In vitro invasion test (Boyden chamber), FaDu", "format": "cell-based", "conditions": "NGF 16 nM or proNGF N.C. 0.5 nM, untreated cells = 100%", "protocol": "(0.5 nM) for a period of 20 hours. The untreated cells represent the control and determine a base invasion of 100%.\nThe Boyden Chambers (Transwell®; BD Biosciences; France) were recovered from a biological matrix (type 1 collagen from rats diluted to 400 μg·mL-1 in EMEM-0.1% FCS medium; Millipore). The cells were then seeded with 100,000 cells/well on PET membranes (polyethylene terephtalate; dia.: 10.5 mm; porosity: 8 μm) of Boyden Chambers and held in an EMEM-0.1% FCS medium. […] (0.5 nM) in the lower part. After 20 hours of culture, they were washed twice with PBS 1× and fixed (ice cold methanol; 15 min; −20° C.). The non-invasive cells (upper face of the Transwell®) were eliminated by scraping. The number of cells was estimated after staining with Hoechst 33 258 (1 mM; 30 min; 20° C.) by counting the nuclei thereof using fluorescence microscopy on a total of 5 five randomly chosen fields (lens 10×; λ-excitation: 345 nm; λ-emission: 478 nm; Eclipse Ti) using the ImageJ software. Each experiment was performed in triplicate. Statistical analysis of the results was performed by analysis of variance ANOVA (Bonferroni post-hoc test)."}},
  "data": [
    {"substance": "siEphA2: siRNA against EphA2, GCAAGGAAGUGGUACUGCUGGACUU (SEQ ID NO: 1) (listed as RNA, chemistry not given here)", "values": [
      {"measurement": "tumour volume / growth of xenografted tumours vs control", "setting": "[1]", "value": "strongly reduces the growth of xenografted tumours"}
    ]},
    {"substance": "NGF: Nerve Growth Factor; recombinant human β NGF supplied by Scil Proteins", "values": [
      {"measurement": "cell invasion under growth factor", "setting": "[2]", "value": "did not respond"}
    ]}
  ]
}
